In paper PMC11193023 (The Journal of Biological Chemistry, 2024):

Target: T1, BwCuyA (Bilophila wadsworthia, UniProt E5Y343)
T1 sequence (E5Y343 1-333): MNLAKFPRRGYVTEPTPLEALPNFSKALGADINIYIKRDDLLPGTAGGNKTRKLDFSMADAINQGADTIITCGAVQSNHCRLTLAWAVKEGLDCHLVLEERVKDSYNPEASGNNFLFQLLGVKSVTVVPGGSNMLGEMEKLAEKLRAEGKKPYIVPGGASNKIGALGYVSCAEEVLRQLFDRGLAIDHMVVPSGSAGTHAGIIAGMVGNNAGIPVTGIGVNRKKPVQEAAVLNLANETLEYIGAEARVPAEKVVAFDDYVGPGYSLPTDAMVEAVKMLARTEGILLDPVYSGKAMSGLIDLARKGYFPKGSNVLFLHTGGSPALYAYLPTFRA
Test: UV-Vis absorbance spectrum of purified enzyme
Format: binding
Details: enzyme as isolated; sub-stoichiometric PLP content

With `Cc1ncc(COP(=O)(O)O)c(C=O)c1O` [PLP] the “UV-Vis absorbance spectrum of purified enzyme” value was “UV-Vis absorbance spectrum of BwCuyA exhibited characteristic features of the PLP cofactor”.
